What is called IC50 is the point on the concentration scale where inhibition reaches its midpoint.

Here are results for 16 compounds from US8871753B2, “Macrocyclic compounds and their use as kinase inhibitors” (Incyte Corporation, priority 2008, dated 2014).

What all share (format): biochemical
Test [1] addresses TYK2 (Homo sapiens, UniProt P29597). The experiment in a line: TYK2 kinase inhibition (Table A1).
Test [2] addresses T1, human JAK3 (a.a. 781-1124) (Homo sapiens, UniProt P52333).
T1 construct: JAK3 (a.a. 781-1124); His tag (N); made in house; host or cells: insect cells (baculovirus)
Briefly: In vitro JAK kinase assay (HTRF, phosphorylation of a biotinylated peptide), JAK3. Particulars: method AA1 (3 μM ATP) or AA2 (1000 μM ATP), not stated per value. The method, boiled down: (§1)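 Kinase activity was measured as phosphorylation of a biotinylated peptide, with ATP at 90 μM for JAK1, 30 μM for JAK2 and 3 μM for JAK3. Reactions ran 1 hr at room temperature, were stopped with EDTA plus SA-APC and Eu-Py20, and were read by HTRF after 40 minutes of antibody binding.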

Test [3] concerns the target T2, Recombinant Human Anaplastic Lymphoma Kinase (Homo sapiens, UniProt Q9UM73).
T2 construct: purchased Invitrogen, Carlsbad, Calif
Briefly: ALK HTRF kinase assay. The settings on record: 90 μM ATP; for ALK % of inhibition at a concentration of 500 nM or 1 mM: compound at 500 nM or 1 mM. From the text:
Materials: Recombinant Human Anaplastic Lymphoma Kinase was purchased from Invitrogen, Carlsbad, Calif. Peptide substrate (Biotin-[…]-amide) was custom synthesized at EZBiolab, Westfield, Ind. Streptavidin conjugated SureLight-Allophycocyania and LANCE Eu-W1024 labeled anti-phosphotyrosine antibody were from Perkin-Elmer, Boston, Mass. Microplates were from Corning Inc., Acton, Mass. All other reagents were from Sigma, St. Louis, Mo.
Plates were read in Fusion α-FP instrument (Perkin-Elmer). […] Signal=Bottom+(Top−Bottom)/(1+10^((Log(IC50)−Log [I])*Hill Slope) Bottom and Top refer to the post and pre-transition baselines, respectively.

Test [4] concerns the target T3, human JAK1 (a.a. 837-1142) (Homo sapiens, UniProt P23458).
T3 construct: human JAK1 (a.a. 837-1142); His tag (N); made in house; host or cells: insect cells (baculovirus)
Briefly: In vitro JAK kinase assay (HTRF, phosphorylation of a biotinylated peptide), JAK1. The settings on record: method AA1 (90 μM ATP) or AA2 (1000 μM ATP), not stated per value; read-out: JAK1 IC50. The method, boiled down:
as §1
In general terms: Time-resolved FRET reads energy transfer from a long-lived donor to a nearby acceptor.

For test [5], the target named is T4, human JAK2 (a.a. 828-1132) (Homo sapiens, UniProt O60674).
T4 construct: JAK2 (a.a. 828-1132); His tag (N); made in house; host or cells: insect cells (baculovirus)
Briefly: In vitro JAK kinase assay (HTRF, phosphorylation of a biotinylated peptide), JAK2. Particulars: method AA1 (30 μM ATP) or AA2 (1000 μM ATP), not stated per value. The gist of the method:
as §1

Molecules are shown by their SMILES. Where a name gives a salt, the structure may show the parent alone.

T4 sequence (O60674 828-1132): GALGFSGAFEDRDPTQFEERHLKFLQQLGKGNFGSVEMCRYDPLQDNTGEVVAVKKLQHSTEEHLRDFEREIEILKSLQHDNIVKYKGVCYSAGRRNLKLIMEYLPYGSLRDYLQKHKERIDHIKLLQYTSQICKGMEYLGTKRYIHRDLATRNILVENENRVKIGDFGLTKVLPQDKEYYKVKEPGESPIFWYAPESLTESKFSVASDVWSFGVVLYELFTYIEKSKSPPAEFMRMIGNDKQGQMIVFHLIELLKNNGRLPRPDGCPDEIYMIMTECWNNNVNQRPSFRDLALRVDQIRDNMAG
T2 sequence (Q9UM73 19-1620): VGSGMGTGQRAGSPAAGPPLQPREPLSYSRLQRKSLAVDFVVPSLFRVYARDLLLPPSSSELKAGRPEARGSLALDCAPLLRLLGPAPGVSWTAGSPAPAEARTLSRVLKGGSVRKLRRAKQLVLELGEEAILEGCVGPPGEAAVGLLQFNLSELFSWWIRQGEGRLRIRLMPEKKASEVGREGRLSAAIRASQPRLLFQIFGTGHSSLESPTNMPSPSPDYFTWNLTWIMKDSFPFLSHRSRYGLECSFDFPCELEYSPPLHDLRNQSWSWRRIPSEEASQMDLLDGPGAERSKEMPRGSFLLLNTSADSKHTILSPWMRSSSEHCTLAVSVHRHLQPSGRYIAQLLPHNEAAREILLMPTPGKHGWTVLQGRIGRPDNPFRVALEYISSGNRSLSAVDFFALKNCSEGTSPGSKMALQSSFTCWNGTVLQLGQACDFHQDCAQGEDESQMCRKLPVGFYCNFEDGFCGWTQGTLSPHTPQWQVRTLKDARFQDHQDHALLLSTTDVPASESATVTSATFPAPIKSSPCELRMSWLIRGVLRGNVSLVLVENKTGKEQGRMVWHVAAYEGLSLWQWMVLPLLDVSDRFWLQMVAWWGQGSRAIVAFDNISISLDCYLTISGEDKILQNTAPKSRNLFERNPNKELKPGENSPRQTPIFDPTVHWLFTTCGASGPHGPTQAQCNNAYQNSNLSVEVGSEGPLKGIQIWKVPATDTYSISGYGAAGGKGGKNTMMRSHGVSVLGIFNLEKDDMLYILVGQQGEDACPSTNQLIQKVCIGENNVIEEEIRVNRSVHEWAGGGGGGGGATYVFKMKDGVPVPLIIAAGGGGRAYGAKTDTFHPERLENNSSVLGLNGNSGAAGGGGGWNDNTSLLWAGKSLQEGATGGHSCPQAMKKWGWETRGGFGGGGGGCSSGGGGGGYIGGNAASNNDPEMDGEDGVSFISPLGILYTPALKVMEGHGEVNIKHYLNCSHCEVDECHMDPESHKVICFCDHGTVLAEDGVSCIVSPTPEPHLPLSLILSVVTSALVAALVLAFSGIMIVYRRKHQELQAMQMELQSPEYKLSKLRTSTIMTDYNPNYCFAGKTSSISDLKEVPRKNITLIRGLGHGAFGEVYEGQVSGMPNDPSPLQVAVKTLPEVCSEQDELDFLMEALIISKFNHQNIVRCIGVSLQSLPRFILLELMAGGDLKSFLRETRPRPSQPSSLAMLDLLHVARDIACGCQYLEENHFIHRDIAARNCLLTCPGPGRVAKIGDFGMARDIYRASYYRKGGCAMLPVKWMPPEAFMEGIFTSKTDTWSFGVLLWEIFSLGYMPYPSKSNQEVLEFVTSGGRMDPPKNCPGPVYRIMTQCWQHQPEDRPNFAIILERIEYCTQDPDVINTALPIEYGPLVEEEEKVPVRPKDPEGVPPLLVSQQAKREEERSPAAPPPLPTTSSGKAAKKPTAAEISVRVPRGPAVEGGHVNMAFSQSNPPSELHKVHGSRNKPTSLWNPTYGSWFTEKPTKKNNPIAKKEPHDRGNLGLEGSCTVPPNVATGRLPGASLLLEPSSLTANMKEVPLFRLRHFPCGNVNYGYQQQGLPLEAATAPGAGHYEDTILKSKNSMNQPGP
T3 sequence (P23458 849-1154): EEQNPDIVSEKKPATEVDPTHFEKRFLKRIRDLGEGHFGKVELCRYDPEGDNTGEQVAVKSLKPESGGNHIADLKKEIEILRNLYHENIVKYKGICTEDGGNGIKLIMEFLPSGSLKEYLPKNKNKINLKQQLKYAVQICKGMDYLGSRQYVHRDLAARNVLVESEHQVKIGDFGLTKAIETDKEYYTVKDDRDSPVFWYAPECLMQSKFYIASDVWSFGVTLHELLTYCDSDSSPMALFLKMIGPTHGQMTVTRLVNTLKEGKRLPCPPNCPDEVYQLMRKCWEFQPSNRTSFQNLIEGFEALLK
T1 sequence (P52333 781-1124): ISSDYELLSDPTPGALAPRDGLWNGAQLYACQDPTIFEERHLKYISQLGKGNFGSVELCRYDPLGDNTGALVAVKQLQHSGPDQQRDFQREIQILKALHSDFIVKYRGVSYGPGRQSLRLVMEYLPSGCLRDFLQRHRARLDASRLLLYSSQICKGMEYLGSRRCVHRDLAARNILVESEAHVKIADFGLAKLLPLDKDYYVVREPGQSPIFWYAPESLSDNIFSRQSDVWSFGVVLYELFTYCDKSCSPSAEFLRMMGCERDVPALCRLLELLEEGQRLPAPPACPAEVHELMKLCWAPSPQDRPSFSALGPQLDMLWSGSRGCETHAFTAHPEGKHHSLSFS
TYK2, sequence (P29597 whole entry): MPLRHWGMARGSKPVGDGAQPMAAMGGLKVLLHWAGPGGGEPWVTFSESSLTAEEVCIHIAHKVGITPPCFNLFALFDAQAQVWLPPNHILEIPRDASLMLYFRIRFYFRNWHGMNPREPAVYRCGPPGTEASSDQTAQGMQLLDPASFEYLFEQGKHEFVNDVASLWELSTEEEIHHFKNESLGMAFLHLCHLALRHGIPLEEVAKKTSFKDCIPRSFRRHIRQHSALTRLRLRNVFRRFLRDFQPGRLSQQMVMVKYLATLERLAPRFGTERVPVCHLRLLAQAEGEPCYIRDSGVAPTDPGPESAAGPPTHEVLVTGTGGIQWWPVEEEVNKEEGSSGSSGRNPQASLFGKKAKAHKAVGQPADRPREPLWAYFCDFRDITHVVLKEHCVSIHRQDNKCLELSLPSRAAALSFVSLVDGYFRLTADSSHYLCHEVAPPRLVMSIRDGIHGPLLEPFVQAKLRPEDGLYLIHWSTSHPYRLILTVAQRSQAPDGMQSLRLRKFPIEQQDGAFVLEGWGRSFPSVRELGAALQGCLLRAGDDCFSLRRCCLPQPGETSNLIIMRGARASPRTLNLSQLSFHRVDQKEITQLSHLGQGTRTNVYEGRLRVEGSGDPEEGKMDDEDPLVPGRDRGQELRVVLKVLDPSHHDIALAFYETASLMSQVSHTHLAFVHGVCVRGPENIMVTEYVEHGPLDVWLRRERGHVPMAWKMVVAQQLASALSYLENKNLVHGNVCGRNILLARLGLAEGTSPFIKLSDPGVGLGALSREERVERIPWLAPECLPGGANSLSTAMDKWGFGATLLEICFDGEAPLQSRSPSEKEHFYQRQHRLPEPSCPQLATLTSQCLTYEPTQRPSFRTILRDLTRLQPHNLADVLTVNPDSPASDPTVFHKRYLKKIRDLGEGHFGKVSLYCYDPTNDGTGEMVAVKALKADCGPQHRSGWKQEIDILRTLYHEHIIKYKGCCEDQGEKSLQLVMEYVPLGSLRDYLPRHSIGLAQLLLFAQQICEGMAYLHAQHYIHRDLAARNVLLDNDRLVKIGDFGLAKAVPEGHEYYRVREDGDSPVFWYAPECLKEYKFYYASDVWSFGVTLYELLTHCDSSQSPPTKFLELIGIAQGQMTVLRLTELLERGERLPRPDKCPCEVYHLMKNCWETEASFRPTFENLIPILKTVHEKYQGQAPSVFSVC

Consider `c1cc2cc(c1)Nc1ccnc(n1)Nc1cccc(c1)CC2` [Example A3, 2,4,8,22-Tetraazatetracyclo[14.3.1.1(3,7).1(9,13)]docosa-1(20),3(22),4,6,9(21),10,12,16,18-nonaene trifluoroacetate], for which the IC50 came to 55 nM in test [1]; 45 nM in test [2]; 2040 nM in test [3]; 50 nM in test [4]; 15 nM in test [5].

As for `Clc1cnc2nc1Nc1cccc(c1)CCCc1cccc(c1)N2` [Example A4, 6-Chloro-2,4,8,23-tetraazatetracyclo[15.3.1.1(3,7).1(9,13)]tricosa-1(21),3(23),4,6,9(22),10,12,17,19-nonaene], the IC50 is greater than 100 nM in test [1]; 45 nM in test [2]; 925 nM in test [3]; 87 nM in test [4]; 54 nM in test [5].

`O=C1CCc2cccc(c2)Nc2nc(ncc2Cl)Nc2cccc1c2` [Example A5, 6-Chloro-2,4,8,23-tetraazatetracyclo[15.3.1.1(3,7).1(9,13)]tricosa-1(21),3(23),4,6,9(22),10,12,17,19-nonaen-16-one trifluoroacetate]: the IC50 in test [1] was greater than 100 nM; in test [2] it was greater than 100 nM; in test [3], 6180 nM; in test [4] it was greater than 100 nM; in test [5], 56 nM.

`Cc1cc(N2CCOCC2)c2cc1Nc1ncc(Cl)c(n1)Nc1cccc(c1)CC2` [Example A6, 6-Chloro-19-methyl-17-morpholin-4-yl-2,4,8,22-tetraazatetracyclo[14.3.1.1(3,7).1(9,13)]docosa-1(20),3(22),4,6,9(21),10,12,16,18-nonaene trifluoroacetate]: the IC50 was found to be 76 nM in test [1]; 802 nM in test [2]; 497 nM in test [3]; 700 nM in test [4]; 8.7 nM in test [5].

Consider `Cc1ccc2cc1Nc1ncc(Cl)c(n1)Nc1cccc(c1)CC2` [Example A7, 6-Chloro-19-methyl-2,4,8,22-tetraazatetracyclo[14.3.1.1(3,7).1(9,13)]docosa-1(20),3(22),4,6,9(21),10,12,16,18-nonaene trifluoroacetate], for which the IC50 in test [1] amounted to 150 nM; in test [2], 300 nM; in test [3], 523 nM; in test [4], 128 nM; in test [5] it was 32 nM.

For the compound `CC(C)S(=O)(=O)c1ccc2cc1Nc1nc(ncc1Cl)Nc1cccc(c1)CC2` [Example A8, 6-Chloro-10-(isopropylsulfonyl)-2,4,8,22-tetraazatetracyclo[14.3.1.1(3,7).1(9,13)]docosa-1(20),3(22),4,6,9(21),10,12,16,18-nonaene trifluoroacetate], the IC50 was found to be 80 nM in test [1]; 20 nM in test [2]; 80 nM in test [3]; 51 nM in test [4]; 52 nM in test [5].

Regarding `N#Cc1ccc(NC(=O)N2CCN(C(=O)COc3ccc4cc3CCc3cccc(c3)Nc3ncc(Cl)c(n3)N4)CC2)cc1` [Example A9, 4-({[6-Chloro-2,4,8,22-tetraazatetracyclo[14.3.1.1(3,7).1(9,13)]docosa-1(20),3(22),4,6,9(21),10,12,16,18-nonaen-12-yl]oxy}acetyl)-N-(4-cyanophenyl)piperazine-1-carboxamide trifluoroacetate], the IC50 turned out to be 22 nM in test [1], 67 nM in test [2], 9.1 nM in test [4] and 19 nM in test [5]. The “ALK % of inhibition at a concentration of 500 nM or 1 mM” value (from here on “ALK % of inhibition”) in test [3] stood at 0%.

On to `O=C(COc1ccc2cc1CCc1cccc(c1)Nc1ncc(Cl)c(n1)N2)N1CCN(C(=O)Nc2ccc(Cl)nc2)CC1` [Example A10, 4-(6-Chloropyridin-3-yl)-4-({[6-chloro-2,4,8,22-tetraazatetracyclo[14.3.1.1(3,7).1(9,13)]docosa-1(20),3(22),4,6,9(21),10,12,16,18-nonaen-12-yl]oxy}acetyl)piperazine-1-carboxamide bis(trifluoroacetate)], for which the IC50 in test [1] amounted to 50 nM; in test [2], 104 nM; in test [4] it was 14 nM; in test [5], 21 nM. Also, in test [3], the “ALK % of inhibition” value is 5%.

As to `Cn1ccc2c(NC(=O)N3CCN(C(=O)COc4ccc5cc4CCc4cccc(c4)Nc4ncc(Cl)c(n4)N5)CC3)cccc21` [Example A11, 4-({[6-Chloro-2,4,8,22-tetraazatetracyclo[14.3.1.1(3,7).1(9,13)]docosa-1(20),3(22),4,6,9(21),10,12,16,18-nonaen-12-yl]oxy}acetyl)-N-(1-methyl-1H-indol-4-yl)piperazine-1-carboxamide trifluoroacetate], the IC50 in test [1] turned out to be 9.5 nM; in test [2], 16 nM; in test [4] it was 3.4 nM; in test [5], 5.6 nM. Moreover, the “ALK % of inhibition” value in test [3] turned out to be 12%.

With `CCNC(=O)N1CCN(C(=O)COc2ccc3cc2CCc2cccc(c2)Nc2ncc(Cl)c(n2)N3)CC1` [Example A12, trifluoroacetate], the IC50 was 30 nM in test [1], 65 nM in test [2], 9.4 nM in test [4] and 11 nM in test [5]. In test [3], the “ALK % of inhibition” value was found to be 17%.

Consider `O=C(COc1ccc2cc1CCc1cccc(c1)Nc1ncc(Cl)c(n1)N2)N1CCN(C(=O)Nc2ccccc2)CC1` [Example A13, 4-({[6-Chloro-2,4,8,22-tetraazatetracyclo[14.3.1.1(3,7).1(9,13)]docosa-1(20),3(22),4,6,9(21),10,12,16,18-nonaen-12-yl]oxy}acetyl)-N-phenylpiperazine-1-carboxamide trifluoroacetate], for which the IC50 in test [1] was 42 nM; in test [2], 44 nM; in test [4], 1 nM; in test [5], 2.6 nM. Moreover, in test [3], the “ALK % of inhibition” value was 20%.

In the case of `Clc1cnc2nc1Nc1ccc(OC3CCCC3)c(c1)CCc1cccc(c1)N2` [Example A14, 6-Chloro-12-(cyclopentyloxy)-2,4,8,22-tetraazatetracyclo[14.3.1.1(3,7).1(9,13)]docosa-1(20),3(22),4,6,9(21),10,12,16,18-nonaene trifluoroacetate], the IC50 in test [1] is 116 nM; in test [2], 144 nM; in test [4], 74 nM; in test [5] it was 42 nM. Also, the “ALK % of inhibition” value in test [3] was 0%.

Regarding `NC(=O)COc1ccc2cc1CCc1cccc(c1)Nc1ncc(Cl)c(n1)N2` [Example A15, 2-{[6-Chloro-2,4,8,22-tetraazatetracyclo[14.3.1.1(3,7).1(9,13)]docosa-1(20),3(22),4,6,9(21),10,12,16,18-nonaen-12-yl]oxy}acetamide trifluoroacetate], the IC50 in test [1] was 3.4 nM; in test [2] it was 4.8 nM; in test [4], 2.9 nM; in test [5], 1.1 nM. The “ALK % of inhibition” value in test [3] was 79%.

Take `CC(Oc1ccc2cc1CCc1cccc(c1)Nc1ncc(Cl)c(n1)N2)C(=O)Nc1ccccc1` (centres unmarked) [Example A16, 2-{[6-Chloro-2,4,8,22-tetraazatetracyclo[14.3.1.1(3,7).1(9,13)]docosa-1(20),3(22),4,6,9(21),10,12,16,18-nonaen-12-yl]oxy}-N-phenylpropanamide trifluoroacetate]: the IC50 in test [1] stood at 32 nM; in test [2], 60 nM; in test [4], 12 nM; in test [5], 10 nM. In addition, the “ALK % of inhibition” value in test [3] is recorded as 21%.

For the compound `O=C(COc1ccc2cc1CCc1cccc(c1)Nc1ncc(Cl)c(n1)N2)Nc1ccccc1` [Example A18, 2-{[6-Chloro-2,4,8,22-tetraazatetracyclo[14.3.1.1(3,7).1(9,13)]docosa-1(20),3(22),4,6,9(21),10,12,16,18-nonaen-12-yl]oxy}-N-phenylacetamide trifluoroacetate], the IC50 in test [1] amounted to 11 nM; in test [2], 23 nM; in test [4], 4.5 nM; in test [5], 3.3 nM. In addition, the “ALK % of inhibition” value in test [3] came to 59%.

`CC(=O)N1CCN(C(=O)COc2ccc3cc2CCc2cccc(c2)Nc2ncc(Cl)c(n2)N3)CC1` [Example A20, 12-[2-(4-Acetylpiperazin-1-yl)-2-oxoethoxy]-6-chloro-2,4,8,22-tetraazatetracyclo[14.3.1.1(3,7).1(9,13)]docosa-1(20),3(22),4,6,9(21),10,12,16,18-nonaene trifluoroacetate]: the IC50 amounted to 27 nM in test [1], 78 nM in test [2], 12 nM in test [4] and 8.2 nM in test [5]. Moreover, the “ALK % of inhibition” value in test [3] is recorded as 17%.
